This is an account of results in patent publication US8344028B2, “Gamma-amino-butyric acid derivatives as GABAB receptor ligands” (XenoPort, Inc., priority 2009, dated 2013).

Assay [1] has as its target T1, recombinant human GABABR1a2 (Homo sapiens, UniProt Q9UBS5).
T1 construct: expressed in transfected cells; host or cells: HEK cells
The assay is described as follows: cAMP assay for determining GABAB receptor agonist activity. The assay is classed as cell-based. How it is done:
The following procedure was used to determine the level of intracellular cAMP. Recombinant HEK cells expressing the GABAB R1a2 receptor were used in the experiments. cAMP levels were measured using a cAMP XS^+ HitHunter™ Chemiluminescence Assay Kit (90-0075-02, GE Healthcare Biosciences Corp.). Cells were seeded overnight at 5,000 cells per well, in black, clear bottom 96-well plates. The following morning, cells were washed twice with 100 μL PBS per well. Forskolin was weighed out and dissolved in DMSO to a final concentration 100 mM. One-hundred (100) μM forskolin solutions were prepared in PBS with and without test compound at 1-times final concentration. Thirty (30) μL of the test solutions were added to the wells and incubated for 1 h at room temperature. The cAMP concentration was determined according to the protocol described in the cAMP assay kit, maintaining the plate at room temperature and in the dark. Two hours after the final kit reagent was added, the plate bottom was covered with black tape, and the plate read using a 1450 MicroBeta Trilux microplate scintillation and luminescence counter (PerkinElmer, Waltham, Mass.). Each well was read for 6 seconds. The untransformed data was then analyzed.

The target in assay [2] is T2, GABAB receptor (Rattus norvegicus, UniProt Q9Z0U4).
T2 construct: from tissue; host or cells: rat cerebral cortex membranes
T2 sequence (Q9Z0U4 20-960): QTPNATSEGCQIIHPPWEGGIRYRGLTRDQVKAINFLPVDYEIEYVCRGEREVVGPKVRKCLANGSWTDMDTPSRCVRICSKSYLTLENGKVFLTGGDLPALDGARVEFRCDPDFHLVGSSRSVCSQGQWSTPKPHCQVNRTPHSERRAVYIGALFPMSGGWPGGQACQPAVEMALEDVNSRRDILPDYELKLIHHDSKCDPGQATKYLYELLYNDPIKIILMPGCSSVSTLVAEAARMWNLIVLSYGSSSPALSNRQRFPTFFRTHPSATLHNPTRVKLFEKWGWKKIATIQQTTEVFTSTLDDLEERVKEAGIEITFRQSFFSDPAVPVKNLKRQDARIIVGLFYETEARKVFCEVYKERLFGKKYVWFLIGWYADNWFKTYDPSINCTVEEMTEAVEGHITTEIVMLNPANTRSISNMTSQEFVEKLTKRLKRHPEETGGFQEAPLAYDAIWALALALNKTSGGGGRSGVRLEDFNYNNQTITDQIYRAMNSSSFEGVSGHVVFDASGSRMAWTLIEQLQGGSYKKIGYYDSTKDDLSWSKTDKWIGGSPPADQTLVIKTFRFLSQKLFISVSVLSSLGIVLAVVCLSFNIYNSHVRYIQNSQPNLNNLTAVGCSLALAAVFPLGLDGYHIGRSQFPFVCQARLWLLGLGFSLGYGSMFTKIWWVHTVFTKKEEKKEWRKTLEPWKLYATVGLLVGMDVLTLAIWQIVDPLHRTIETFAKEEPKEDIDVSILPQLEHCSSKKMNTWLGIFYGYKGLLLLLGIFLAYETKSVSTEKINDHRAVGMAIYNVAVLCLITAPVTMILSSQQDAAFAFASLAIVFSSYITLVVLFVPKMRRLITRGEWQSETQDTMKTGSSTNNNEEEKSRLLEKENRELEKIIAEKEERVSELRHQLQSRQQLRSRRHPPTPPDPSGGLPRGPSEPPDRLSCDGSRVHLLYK
T2 sequence (O88871 41-940 partner): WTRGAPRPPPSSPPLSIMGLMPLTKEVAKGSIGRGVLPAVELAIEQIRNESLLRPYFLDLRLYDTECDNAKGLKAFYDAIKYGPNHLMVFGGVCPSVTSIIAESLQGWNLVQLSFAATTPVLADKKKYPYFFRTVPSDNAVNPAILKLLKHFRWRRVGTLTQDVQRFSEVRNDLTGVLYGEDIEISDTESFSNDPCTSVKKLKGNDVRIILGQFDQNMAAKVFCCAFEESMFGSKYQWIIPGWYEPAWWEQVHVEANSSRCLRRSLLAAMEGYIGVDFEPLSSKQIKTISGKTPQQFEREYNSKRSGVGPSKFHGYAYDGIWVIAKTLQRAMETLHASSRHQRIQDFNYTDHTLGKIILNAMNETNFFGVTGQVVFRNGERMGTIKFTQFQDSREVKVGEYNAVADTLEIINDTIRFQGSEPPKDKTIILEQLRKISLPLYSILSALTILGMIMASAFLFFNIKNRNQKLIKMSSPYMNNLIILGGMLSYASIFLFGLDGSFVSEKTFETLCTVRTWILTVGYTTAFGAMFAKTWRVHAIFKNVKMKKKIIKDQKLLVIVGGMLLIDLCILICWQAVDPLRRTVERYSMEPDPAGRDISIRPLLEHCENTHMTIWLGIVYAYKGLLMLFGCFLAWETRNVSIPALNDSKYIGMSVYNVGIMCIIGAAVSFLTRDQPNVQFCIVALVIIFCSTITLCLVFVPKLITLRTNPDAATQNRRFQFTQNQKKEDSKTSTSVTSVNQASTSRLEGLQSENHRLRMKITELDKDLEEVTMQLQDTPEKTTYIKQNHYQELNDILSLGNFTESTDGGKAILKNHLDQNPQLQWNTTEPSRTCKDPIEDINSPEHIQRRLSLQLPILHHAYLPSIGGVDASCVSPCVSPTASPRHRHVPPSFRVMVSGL
The assay is described as follows: [3H]CGP54626 rat brain GABAB receptor binding assay. The settings on record: [3H]CGP54626 rat brain binding assay. On the procedure:
An assay using rat cerebral cortex membranes was used to determine the affinity of GABAB receptor ligands for the GABAB receptor.
An assay buffer of 50 mM Tris pH 7.4 was prepared with 100 μM of isoguvacine, to block GABAA interactions. The assay buffer with isoguvacine was used for dilution of membranes, compounds, and radiolabel.
Rat cerebral cortex membranes were diluted in assay buffer at 1 mg/mL and aliquoted into a 96-well plate at 900 μL/well. Buffer or test compound were added at 20-times final concentration in the buffer at 50 μL/well. Membranes and test compounds or buffer were incubated for 10 min. at room temperature. Radiolableled [S—(R*,R*)]-[3-[[1-(3,4-dichlorophenyl)ethyl]amino]-2-hydroxypropyl](cyclohexylmethyl) phosphinic acid (CGP54626) was then added at 50 μL/well in the buffer at 1-10 nM concentration in 50 μl. The mixture was incubated for 15 min. at room temperature. The assay mixture was filtered using Brandell filtration apparatus and GFB filters, washed twice with 3 mL of 4° C., 50 mM Tris pH 7.4, buffer without isoguvacine. The filters were then dried at room temperature and the dried filters punched out and placed in individual vials. Three (3) mL of scintillation fluid was added to each vial and the radiolabel counted on the scintillation counter. The inverse amount of radiolabel was indicative of binding of a test compound to the GABAB receptor.

In assay [3] the target is GABAB receptor (Homo sapiens, UniProt Q9UBS5). The assay is described as follows: GABAB receptor agonist or partial agonist activity by binding, electrophysiology, cAMP and/or Ca2+ assay methods (Examples 83-86). The assay is classed as cell-based. Summed up:
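Binding: rat cortex membranes in 50 mM Tris pH 7.4 with 100 μM isoguvacine were preincubated 10 min at RT with compound, then radiolabeled CGP54626 (1-10 nM) was added; filtered and scintillation-counted. cAMP: GABAB R1a2 HEK cells, 1 h RT with 100 μM forskolin, chemiluminescence.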

Assay [4] concerns the target T1, recombinant human GABABR1a2. Nature of the assay: Ca2+ assay for determining GABAB receptor agonist activity. The assay is classed as cell-based. The settings on record: cells expressing recombinant human GABABR1a2. How it is done: The following procedure was used to determine the GABAB receptor agonist activity of a compound as reflected by activation of Ca^2+ signaling. HEK TREx cells expressing GABABR1a2 under tetracycline induction control, and Gqi chimeric protein (expressed constitutively), allowing GABABR coupling through the Ca^2+ signaling pathway were used in the experiments.
Cells were seeded in media containing tetracycline overnight at 100,000 cells/well, in black, clear-bottom, 96-well plates. The following morning, cells were washed twice with 100 μL HBSS buffer per well. Fluorescent Ca^2+ indicator dye was prepared using the materials and procedure described in the F362056 Fluo-4 NW Calcium Assay Kit (Invitrogen, Carlsbad, Calif.). Ten (10) mL of kit buffer and 100 μl of kit Probenecid were added to individual kit dye vials, and rolled back and forth several times to dissolve the dye. Cells were then loaded into the dye solution at 50 μL per well. The cells and dye were incubated for 30 min at 37° C., and then incubated for an additional 30 min at room temperature in the dark. Test compounds are dissolved in HBSS buffer at twice final concentration. Duplicate wells were used for each unique condition. Solution containing the test compound was added to the wells using a FLEXStation II (Molecular Devices, Sunnyvale, Calif.). Using the instrument in kinetic mode in which each well was read every 2 sec over a total collection time of 50 sec fluorescence was measured using an excitation wavelength 494 nm and a detection wavelength of 516 nm. A normalized fluorescence value for each well was calculated using the following procedure. The difference in fluorescence at 35 sec (usually representing maximal response) and at 15 sec (a time point prior to addition of test compounds) was calculated, divided by the fluorescence at 15 sec, and the result multiplied by 100. The final value represented the percent increase in fluorescence relative to the fluorescence at 15 sec. Data was analyzed using standard procedures.

[5] abbreviates: cells expressing recombinant human GABABR1a2, read-out: cAMP EC50.

pEC50, pIC50: −log10 of the molar value. Where a name gives a salt, the structure may show the parent alone.

Chain of GABAB receptor (Homo sapiens, UniProt Q9UBS5) (Q9UBS5 20-961): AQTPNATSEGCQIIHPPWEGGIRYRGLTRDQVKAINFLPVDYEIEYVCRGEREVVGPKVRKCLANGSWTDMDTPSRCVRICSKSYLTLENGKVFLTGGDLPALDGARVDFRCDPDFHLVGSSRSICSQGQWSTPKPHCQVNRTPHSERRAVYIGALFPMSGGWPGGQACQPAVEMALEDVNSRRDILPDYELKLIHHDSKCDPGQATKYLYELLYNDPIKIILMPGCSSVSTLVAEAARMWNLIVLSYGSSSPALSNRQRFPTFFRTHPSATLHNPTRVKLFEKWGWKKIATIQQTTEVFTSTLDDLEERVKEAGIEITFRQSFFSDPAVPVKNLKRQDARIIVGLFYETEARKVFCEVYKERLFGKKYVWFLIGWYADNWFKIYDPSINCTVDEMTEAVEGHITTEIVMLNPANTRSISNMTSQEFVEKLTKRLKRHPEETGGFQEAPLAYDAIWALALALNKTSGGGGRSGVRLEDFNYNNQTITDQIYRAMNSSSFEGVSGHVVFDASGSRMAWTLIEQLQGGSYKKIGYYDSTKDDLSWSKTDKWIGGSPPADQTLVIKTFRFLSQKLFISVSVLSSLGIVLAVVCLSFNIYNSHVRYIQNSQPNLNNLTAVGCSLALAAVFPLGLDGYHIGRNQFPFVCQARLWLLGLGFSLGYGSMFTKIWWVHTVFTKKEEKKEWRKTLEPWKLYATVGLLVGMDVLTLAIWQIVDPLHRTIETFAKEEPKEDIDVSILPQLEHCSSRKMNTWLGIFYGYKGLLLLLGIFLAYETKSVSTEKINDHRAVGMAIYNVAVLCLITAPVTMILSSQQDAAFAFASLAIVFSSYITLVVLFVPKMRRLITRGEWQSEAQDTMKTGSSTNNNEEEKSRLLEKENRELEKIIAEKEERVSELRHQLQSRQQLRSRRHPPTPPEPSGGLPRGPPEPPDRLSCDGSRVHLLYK
Chain of GABAB receptor (Homo sapiens, UniProt Q9UBS5) (O75899 42-941 partner): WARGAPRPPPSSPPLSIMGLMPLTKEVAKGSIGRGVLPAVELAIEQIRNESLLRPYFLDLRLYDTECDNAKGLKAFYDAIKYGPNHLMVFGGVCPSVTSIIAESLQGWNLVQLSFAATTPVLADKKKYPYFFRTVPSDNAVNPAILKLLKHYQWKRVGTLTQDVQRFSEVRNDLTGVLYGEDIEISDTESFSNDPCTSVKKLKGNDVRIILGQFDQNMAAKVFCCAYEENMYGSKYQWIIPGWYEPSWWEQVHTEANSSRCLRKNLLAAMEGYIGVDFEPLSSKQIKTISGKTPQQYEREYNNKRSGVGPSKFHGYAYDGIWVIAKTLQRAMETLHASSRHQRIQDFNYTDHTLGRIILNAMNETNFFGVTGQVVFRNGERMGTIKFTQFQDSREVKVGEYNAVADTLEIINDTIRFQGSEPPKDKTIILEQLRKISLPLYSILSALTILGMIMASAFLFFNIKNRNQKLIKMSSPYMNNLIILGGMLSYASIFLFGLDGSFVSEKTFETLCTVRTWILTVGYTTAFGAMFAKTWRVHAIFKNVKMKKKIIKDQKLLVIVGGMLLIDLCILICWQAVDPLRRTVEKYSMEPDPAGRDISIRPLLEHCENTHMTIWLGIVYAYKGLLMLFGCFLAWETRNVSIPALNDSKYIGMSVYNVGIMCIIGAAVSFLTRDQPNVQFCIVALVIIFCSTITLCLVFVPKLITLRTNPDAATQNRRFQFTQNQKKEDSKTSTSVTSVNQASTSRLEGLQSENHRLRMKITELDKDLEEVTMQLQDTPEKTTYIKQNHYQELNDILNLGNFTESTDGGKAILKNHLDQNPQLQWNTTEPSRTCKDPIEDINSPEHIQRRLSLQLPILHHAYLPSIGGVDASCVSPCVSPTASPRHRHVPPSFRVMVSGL
T1 sequence (Q9UBS5 15-961 limits assumed): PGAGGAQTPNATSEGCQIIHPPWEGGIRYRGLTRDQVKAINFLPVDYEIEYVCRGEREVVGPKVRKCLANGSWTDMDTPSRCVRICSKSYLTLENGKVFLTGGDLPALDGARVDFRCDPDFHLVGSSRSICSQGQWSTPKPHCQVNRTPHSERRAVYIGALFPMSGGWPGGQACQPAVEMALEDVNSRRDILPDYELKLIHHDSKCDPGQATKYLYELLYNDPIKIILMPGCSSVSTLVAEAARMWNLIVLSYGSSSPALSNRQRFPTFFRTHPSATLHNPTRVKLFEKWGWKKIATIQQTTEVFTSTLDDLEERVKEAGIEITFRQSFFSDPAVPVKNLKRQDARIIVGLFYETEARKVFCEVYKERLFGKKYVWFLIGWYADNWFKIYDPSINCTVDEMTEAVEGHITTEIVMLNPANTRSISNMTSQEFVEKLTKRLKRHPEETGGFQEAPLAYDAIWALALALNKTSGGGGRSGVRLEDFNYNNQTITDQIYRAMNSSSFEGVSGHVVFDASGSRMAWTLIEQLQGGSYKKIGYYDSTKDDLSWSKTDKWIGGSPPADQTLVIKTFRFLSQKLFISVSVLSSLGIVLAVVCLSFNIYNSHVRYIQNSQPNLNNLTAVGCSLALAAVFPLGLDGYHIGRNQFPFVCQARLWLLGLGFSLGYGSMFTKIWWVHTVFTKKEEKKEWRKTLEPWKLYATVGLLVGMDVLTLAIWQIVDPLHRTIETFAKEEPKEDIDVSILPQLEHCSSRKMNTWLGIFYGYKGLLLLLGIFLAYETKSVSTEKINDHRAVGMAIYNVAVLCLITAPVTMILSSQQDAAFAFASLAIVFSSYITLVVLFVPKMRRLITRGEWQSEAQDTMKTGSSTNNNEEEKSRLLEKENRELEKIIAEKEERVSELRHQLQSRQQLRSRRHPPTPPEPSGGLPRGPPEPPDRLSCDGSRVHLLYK
T1 sequence (O75899 42-941 partner): as the sequence (O75899 42-941 partner) above

Consider `Cl.NC[C@H](CC(=O)O)c1ccc(Cl)c(-c2cccnc2)c1` [Example 32, (3R)-4-Amino-3-(4-chloro-3-(3-pyridyl)phenyl)butanoic acid hydrochloride], for which the results for the pEC50 in assay [1] (setting [5]) and in assay [4] were over 7.00 and over 6.15, respectively. This molecule also showed a pIC50 on GABAB receptor [2] of over 4.60. For the same molecule, the “GABAB receptor agonist or partial agonist activity” value on GABAB receptor [3] was “agonist or partial agonist activity”.

With `Cl.NC[C@H](CC(=O)O)c1ccc(Cl)c(-c2csc(C(=O)O)c2)c1` [Example 27, 4-{5-[(1R)-2-Amino-1-(carboxymethyl)ethyl]-2-chlorophenyl}thiophene-2-carboxylic acid hydrochloride], the pEC50 was over 7.00 in assay [1] (setting [5]) and over 6.15 in assay [4]. At GABAB receptor [2], this molecule showed a pIC50 of over 4.60. Besides, the “GABAB receptor agonist or partial agonist activity” value at GABAB receptor [3] is listed as “agonist or partial agonist activity”.

With `Cl.NC[C@H](CC(=O)O)c1ccc(Cl)c(-c2cc(C(=O)O)ccc2Cl)c1` [Example 46, 3-{5-[(1R)-2-Amino-1-(carboxymethyl)ethyl]-2-chlorophenyl}-4-chlorobenzoic acid hydrochloride], the pEC50 in assay [1] (setting [5]) was over 7.00; in assay [4], over 6.15. This molecule also had a pIC50 on GABAB receptor [2] of over 4.60. The “GABAB receptor agonist or partial agonist activity” value at GABAB receptor [3] is “agonist or partial agonist activity”.

Take `Cc1ccc(C#N)cc1-c1cc([C@H](CN)CC(=O)O)ccc1Cl.Cl` [(3R)-4-amino-3-[4-chloro-3-(3-cyano-6-methylphenyl)phenyl]butanoic acid hydrochloride]: the pEC50 in assay [1] (setting [5]) was over 7.00; in assay [4] it was over 6.15. On GABAB receptor [2], this molecule gave a negative logarithm of the IC50 (pIC50) of over 4.60. In addition, the “GABAB receptor agonist or partial agonist activity” value at GABAB receptor [3] is “agonist or partial agonist activity”.

Take `NC[C@H](CC(=O)O)c1ccc(Cl)c(OCc2cncs2)c1` [(3R)-4-amino-3-[4-chloro-3-(1,3-thiazol-5-ylmethoxy)phenyl]butanoic acid hydrochloride]: the pEC50 in assay [1] (setting [5]) was over 7.00; in assay [4], over 6.15. The molecule also gave a pIC50 on GABAB receptor [2] of over 4.60.

Regarding `Cl.N#Cc1ccc(F)c(-c2cc([C@H](CN)CC(=O)O)ccc2Cl)c1` [(3R)-4-amino-3-[4-chloro-3-(3-cyano-6-fluorophenyl)phenyl]butanoic acid hydrochloride], the pEC50 in assay [1] (setting [5]) was over 7.00; in assay [4], over 6.15. This molecule also showed a pIC50 at GABAB receptor [2] of over 4.60. Besides, the “GABAB receptor agonist or partial agonist activity” value at GABAB receptor [3] was “agonist or partial agonist activity”.

Turning to `NC[C@H](CC(=O)O)c1ccc(Cl)c(OCc2ccncc2Cl)c1` [(3R)-4-amino-3-{4-chloro-3-[(3-chloro(4-pyridyl))methoxy]phenyl}butanoic acid hydrochloride], the values for the negative logarithm of the EC50 (pEC50) in assay [1] (setting [5]) and in assay [4] were over 7.00 and over 6.15, respectively. Further, the pIC50 at GABAB receptor [2] is over 4.60.

Turning to `Cc1ccncc1-c1cc([C@H](CN)CC(=O)O)ccc1Cl.Cl` [(3R)-4-amino-3-[4-chloro-3-(4-methyl(3-pyridyl))phenyl]butanoic acid hydrochloride], the pEC50 in assay [1] (setting [5]) was over 7.00; in assay [4], over 6.15. For the same molecule, the pIC50 on GABAB receptor [2] was over 4.60. The “GABAB receptor agonist or partial agonist activity” value at GABAB receptor [3] is listed as “agonist or partial agonist activity”.

As for `Cl.NC[C@H](CC(=O)O)c1ccc(Cl)c(CCc2ccncc2)c1` [(3R)-4-amino-3-[4-chloro-3-(2-(4-pyridyl)ethyl)phenyl]butanoic acid hydrochloride], the negative logarithm of the EC50 (pEC50) in assay [1] (setting [5]) was over 7.00; in assay [4], over 6.15. The pIC50 on GABAB receptor [2] is over 4.60. For the same molecule, the “GABAB receptor agonist or partial agonist activity” value at GABAB receptor [3] is given as “agonist or partial agonist activity”.

On to `C[C@@H](Oc1cc([C@H](CN)CC(=O)O)ccc1Cl)c1ccncc1` [(3R)-3-[3-((1R)-1-(4-pyridyl)ethoxy)-4-chlorophenyl]-4-aminobutanoic acid hydrochloride], for which the pEC50 in assay [1] (setting [5]) was over 7.00; in assay [4], over 6.15. In addition, the pIC50 on GABAB receptor [2] is over 4.60.

Take `N#Cc1cc(-c2cc([C@H](CN)CC(=O)O)ccc2Cl)cs1` [(3R)-4-amino-3-[4-chloro-3-(5-cyano(3-thienyl))phenyl]butanoic acid hydrochloride]: the pEC50 was over 7.00 in assay [1] (setting [5]) and over 6.15 in assay [4]. The same molecule showed a pIC50 at GABAB receptor [2] of over 4.60.

With `Cc1cc(COc2cc([C@H](CN)CC(=O)O)ccc2Cl)ccn1` [(3R)-4-amino-3-{4-chloro-3-[(2-methyl(4-pyridyl))methoxy]phenyl}butanoic acid hydrochloride], the results for the pEC50 in assay [1] (setting [5]) and in assay [4] were over 7.00 and over 6.15, respectively. The molecule further gave a pIC50 at GABAB receptor [2] of over 4.60.

Consider `NC[C@H](CC(=O)O)c1ccc(Cl)c(-c2cc(C(=O)O)cs2)c1` [5-{5-[(1R)-2-amino-1-(carboxymethyl)ethyl]-2-chlorophenyl}thiophene-3-carboxylic acid hydrochloride], for which the pEC50 in assay [1] (setting [5]) is over 7.00; in assay [4], over 6.15. In addition, the negative-log IC50 (pIC50) at GABAB receptor [2] was over 4.60.

`NC[C@H](CC(=O)O)c1ccc(Cl)c(-c2ccc([N+](=O)[O-])cc2)c1` [Example 47, (3R)-4-Amino-3-[4-chloro-3-(4-nitrophenyl)phenyl]butanoic acid hydrochloride]: the figures for the pEC50 in assay [1] (setting [5]) and in assay [4] were over 7.00 and over 6.15, respectively. For the same molecule, the pIC50 at GABAB receptor [2] was over 4.60.

For `NC[C@H](CC(=O)O)c1ccc(Cl)c(-c2cc(C(=O)O)co2)c1` [5-{5-[(1R)-2-amino-1-(carboxymethyl)ethyl]-2-chlorophenyl}furan-3-carboxylic acid hydrochloride], the negative logarithm of the EC50 (pEC50) in assay [1] (setting [5]) was over 7.00; in assay [4], over 6.15. Besides, the negative logarithm of the IC50 (pIC50) on GABAB receptor [2] was over 4.60.

Regarding `NC[C@H](CC(=O)O)c1ccc(Cl)c(OCCc2ccncc2)c1` [(3R)-4-amino-3-[4-chloro-3-(2-(4-pyridyl)ethoxy)phenyl]butanoic acid hydrochloride], the pEC50 in assay [1] (setting [5]) is over 7.00; in assay [4], over 6.15. The molecule further had a pIC50 at GABAB receptor [2] of over 4.60.

Take `CN(C)C(=O)c1ccc(-c2cc([C@H](CN)CC(=O)O)ccc2Cl)s1` [(3R)-4-amino-3-{3-[5-(N,N-dimethylcarbamoyl)(2-thienyl)]-4-chlorophenyl}butanoic acid hydrochloride]: the pEC50 was over 7.00 in assay [1] (setting [5]) and over 6.15 in assay [4]. Besides, the pIC50 on GABAB receptor [2] was over 4.60.

Regarding `COC(=O)C[C@@H](CN)c1ccc(Cl)c(OCc2ccncc2)c1` [methyl (3R)-4-amino-3-[4-chloro-3-(4-pyridylmethoxy)phenyl]butanoate hydrochloride], the pEC50 was over 7.00 in assay [1] (setting [5]) and over 6.15 in assay [4]. Also, the negative-log IC50 (pIC50) at GABAB receptor [2] is over 4.60.

As to `NCC(C[PH](=O)O)c1ccc(Cl)c(OCc2ccncc2)c1` (stereo not shown) [Example 82, 2-{4-Chloro-3-(4-pyridylmethoxy)phenyl]-3-(hydrohydroxyphosphoryl)propylamine], the figures for the negative logarithm of the EC50 (pEC50) in assay [1] and in assay [4] were over 7.00 and over 6.15, respectively. This molecule showed a pIC50 on GABAB receptor [2] of over 4.60.
